The text below walks through data of patent publication US20190374576A1, “VIRAL METHODS OF T CELL THERAPY” (Intima Bioscience, Inc., priority 2016, published 2019).

Common to all, as to assay: Validation of gRNAs: Surveyor digest, gel electrophoresis, densitometry in HEK293T cells
Common to all, as to format: cell-based, human

The test system of one data set is CCR5. The note with it: CCR5 target gene site, 3 days. Here is the method:
(§1) HEK293T cells were plated out at a density of 1×10^5 cells per well in a 24 well plate. 150 uL of Opti-MEM medium was combined with 1.5 ug of gRNA plasmid, 1.5 ug of Cas9 plasmid. Another 150 uL of Opti-MEM medium was combined with 5 ul of Lipofectamine 2000 Transfection reagent (Invitrogen). The solutions were combined together and incubated for 15 minutes at room temperature. The DNA-lipid complex was added dropwise to wells of the 24 well plates. Cells were incubated for 3 days at 37° C. and genomic DNA was collected using the GeneJET Genomic DNA Purification Kit (Thermo Scientific). Activity of the gRNAs was quantified by a Surveyor Digest, gel electrophoresis, and densitometry (FIG. 60 and FIG. 61) (Guschin, D. Y., et al., “A Rapid and General Assay for Monitoring Endogenous Gene Modification,” Methods in Molecular Biology, 649: 247-256 (2010)).

For a further data set, the system named is PD1. The following applies: PD1 target gene site, 3 days. Here is the method: HEK293T cells were plated out at a density of 1×10^5 cells per well in a 24 well plate. 150 uL of Opti-MEM medium was combined with 1.5 ug of gRNA plasmid, 1.5 ug of Cas9 plasmid. Another 150 uL of Opti-MEM medium was combined with 5 ul of Lipofectamine 2000 Transfection reagent (Invitrogen). The solutions were combined together and incubated for 15 minutes at room temperature. […] Cells were incubated for 3 days at 37° C. and genomic DNA was collected using the GeneJET Genomic DNA Purification Kit (Thermo Scientific). Activity of the gRNAs was quantified by a Surveyor Digest, gel electrophoresis, and densitometry (FIG. 60 and FIG. 61) (Guschin, D. Y., et al., “A Rapid and General Assay for Monitoring Endogenous Gene Modification,” Methods in Molecular Biology, 649: 247-256 (2010)).

The next data set relates to CTLA4. The following applies: CTLA4 target gene site, 3 days. On the procedure:
as §1

As to “CCR5 gRNA#2: sense primer SEQ ID 63 CACCGTCATCCTCCTGACAATCGAT”, in the data set on CCR5, the “efficiency of Cas9/gRNA pair in creating double strand break (DSB), percent of gene modifications” value was greater than 60%. “PD1 gRNA#2: sense primer SEQ ID 35 CACCGCCTGCTCGTGGTGACCGAAG”: the “efficiency of Cas9/gRNA pair in creating double strand break (DSB), percent of gene modifications” value in the data set on PD1 is on record as greater than 60%.

B1: CTLA4 gRNA#3: sense primer (SEQ ID printed 'Si') … (nucleic acid)
guide: GCTAGATGATTCCATCTGCACGUUUUAGAGCUAGAAAUAGCAAGUUAAAAUAAGGCUAGUCCGUUAUCAACUUGAAAAAGUGGCACCGAGUCGGUGCUUUU
modifications: 2'-O-methyl 3'-phosphorothioate modifications added, positions not given here
B1: the “efficiency of Cas9/gRNA pair in creating double strand break (DSB), percent of gene modifications” value in the data set with CTLA4 is given as 39.33%.
